Assays:
Experiment in all cases: relative viability (nuclei count vs DMSO), 5 days (fraction); higher = more cells survive
Bemcentinib + Pictilisib = compound: Nc1nc(Nc2ccc3c(c2)CC[C@@H](N2CCCC2)CC3)nn1-c1cc2c(nn1)-c1ccccc1CCC2 [Bemcentinib] + CS(=O)(=O)N1CCN(Cc2cc3nc(-c4cccc5[nH]ncc45)nc(N4CCOCC4)c3s2)CC1 [Pictilisib] (partner 1 µM)
Procedure, shortened: (§1)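 Relative viability divides the nuclei count in treated wells by that in vehicle wells. Lung cancer cell lines were seeded in 1536-well plates, dosed by pin tool the next day, and fixed and stained after 5 days in one step with final 0.05% Triton X-100, 1% formaldehyde and 1 ug/ml Hoechst. Dosing was a single drug or a fixed anchor-drug dose plus five library-drug doses (not always all listed) in √10 steps, and values are medians of duplicate plates imaged at 4×.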

[1] = compound: CC1=CC=C(C=C1)C(=O)CN2C3=C(CCCC3)SC2=N [Pifithrin_alpha] + Nc1ncn([C@H]2C[C@H](O)[C@@H](CO)O2)c(=O)n1 [Decitabine] (partner 2 µM)
Procedure, shortened: as §1

Axitinib + Pictilisib = compound: CNC(=O)c1ccccc1Sc1ccc2c(/C=C/c3ccccn3)n[nH]c2c1 [Axitinib] + CS(=O)(=O)N1CCN(Cc2cc3nc(-c4cccc5[nH]ncc45)nc(N4CCOCC4)c3s2)CC1 [Pictilisib] (partner 1 µM)
Procedure, shortened: as §1

[2] = compound: CC1=CC=C(C=C1)C(=O)CN2C3=C(CCCC3)SC2=N [Pifithrin_alpha] + CS(=O)(=O)N1CCN(Cc2cc3nc(-c4cccc5[nH]ncc45)nc(N4CCOCC4)c3s2)CC1 [Pictilisib] (partner 1 µM)
Procedure, shortened: as §1

Row | Cell Line | relative viability (Bemcentinib + Pictilisib; first compound 0.04 µM) | relative viability (Bemcentinib + Pictilisib; first compound 0.1265 µM) | relative viability (Bemcentinib + Pictilisib; first compound 0.4 µM) | relative viability (Bemcentinib + Pictilisib; first compound 1.265 µM) | relative viability (Bemcentinib + Pictilisib; first compound 4 µM) | relative viability ([1]; first compound 1 µM) | relative viability ([1]; first compound 3.162 µM) | relative viability ([1]; first compound 10 µM) | relative viability ([1]; first compound 31.62 µM) | relative viability ([1]; first compound 100 µM) | relative viability (Axitinib + Pictilisib; first compound 0.005 µM) | relative viability (Axitinib + Pictilisib; first compound 0.01581 µM) | relative viability (Axitinib + Pictilisib; first compound 0.05 µM) | relative viability (Axitinib + Pictilisib; first compound 0.1581 µM) | relative viability (Axitinib + Pictilisib; first compound 0.5 µM) | relative viability ([2]; first compound 1 µM) | relative viability ([2]; first compound 3.162 µM) | relative viability ([2]; first compound 10 µM) | relative viability ([2]; first compound 31.62 µM) | relative viability ([2]; first compound 100 µM)
1 | LCLC-103H | 0.588 | 0.632 | 0.692 | 0.604 | 0.616 | 0.659 | 0.7 | 0.708 | 0.636 | 0.65 | 0.644 | 0.512 | 0.664 | 0.569 | 0.587 | 0.53 | 0.531 | 0.566 | 0.551 | 0.567
2 | NCI-H520 | 0.289 | 0.309 | 0.316 | 0.288 | 0.406 | 0.595 | 0.481 | 0.578 | 0.397 | 0.507 | 0.326 | 0.247 | 0.288 | 0.272 | 0.327 | 0.27 | 0.311 | 0.301 | 0.269 | 0.285
3 | NCI-H1975 | 0.279 | 0.291 | 0.301 | 0.28 | 0.277 | 0.663 | 0.339 | 0.306 | 0.311 | 0.279 | 0.334 | 0.311 | 0.365 | 0.317 | 0.377 | 0.232 | 0.18 | 0.187 | 0.193 | 0.18
4 | NCI-H1355 | 0.405 | 0.389 | 0.452 | 0.444 | 0.458 | 0.308 | 0.349 | 0.339 | 0.29 | 0.304 | 0.41 | 0.514 | 0.606 | 0.432 | 0.308 | 0.195 | 0.363 | 0.311 | 0.257 | 0.337
5 | IA-LM | 0.33 | 0.374 | 0.397 | 0.304 | 0.33 |  |  |  |  |  | 0.442 | 0.307 | 0.331 | 0.396 | 0.4 | 0.369 | 0.298 | 0.312 | 0.344 | 0.291
6 | H3255 | 0.463 | 0.488 | 0.448 | 0.465 | 0.557 | 0.581 | 0.66 | 0.646 | 0.389 | 0.572 | 0.485 | 0.288 | 0.432 | 0.492 | 0.435 | 0.432 | 0.612 | 0.497 | 0.35 | 0.491
7 | NCI-H1915 | 0.893 | 1.04 | 0.975 | 0.962 | 0.943 | 0.27 | 0.254 | 0.249 |  | 0.224 | 0.966 | 0.994 | 0.999 | 0.888 | 0.88 | 0.763 | 0.902 | 0.775 |  | 0.838
8 | NCI-H2023 | 0.205 | 0.261 | 0.239 | 0.276 | 0.248 | 0.237 | 0.211 | 0.23 | 0.201 | 0.242 | 0.232 | 0.195 | 0.267 | 0.222 | 0.272 | 0.171 | 0.193 | 0.151 | 0.142 | 0.168
9 | NCI-H3122 | 0.234 | 0.62 | 0.579 | 0.699 | 0.646 | 0.529 | 0.443 | 0.539 | 0.364 | 0.468 | 0.579 | 0.592 | 0.627 | 0.594 | 0.598 | 0.628 | 0.596 | 0.577 | 0.563 | 0.732
10 | SK-MES-1 | 0.303 | 0.379 | 0.404 | 0.361 | 0.374 | 0.351 | 0.424 | 0.353 | 0.411 | 0.352 | 0.303 | 0.391 | 0.337 | 0.409 | 0.481 | 0.392 | 0.32 | 0.33 | 0.293 | 0.237
11 | NCI-H1648 |  |  |  |  |  | 0.478 | 0.597 | 0.464 | 0.406 | 0.496 |  |  |  |  |  |  |  |  |  | 
12 | Calu-6 | 0.917 | 1.15 | 1.1 | 0.953 | 1.03 |  |  |  |  |  | 0.861 | 0.946 | 1 | 0.942 | 1.17 | 1 | 0.907 | 0.816 | 0.546 | 0.644
13 | NCI-H1563 | 0.634 | 0.629 | 0.635 | 0.655 | 0.626 |  |  |  |  |  | 0.645 | 0.599 | 0.647 | 0.681 | 0.659 | 0.53 | 0.688 | 0.61 | 0.65 | 0.705
14 | EBC-1 | 0.391 | 0.307 | 0.39 | 0.399 | 0.353 |  |  |  |  |  | 0.492 | 0.485 | 0.459 | 0.41 | 0.567 | 0.261 | 0.224 | 0.237 | 0.198 | 0.214
15 | NCI-H1703 | 0.246 | 0.259 | 0.23 | 0.22 | 0.243 |  |  |  |  |  | 0.228 | 0.216 | 0.254 | 0.231 | 0.2 | 0.25 | 0.24 | 0.261 | 0.214 | 0.251
16 | NCI-H2228 |  | 0.444 | 0.479 | 0.535 | 0.343 |  |  |  |  |  | 0.472 | 0.391 | 0.416 | 0.486 | 0.622 | 0.516 | 0.352 | 0.434 | 0.294 | 0.303
17 | SW 900 |  |  |  |  |  | 0.395 | 0.381 | 0.423 | 0.389 | 0.447 |  |  |  |  |  |  |  |  |  | 
18 | NCI-H1299 | 0.818 | 0.793 | 0.878 | 0.874 | 0.75 |  |  |  |  |  | 0.765 | 0.997 | 0.75 | 0.856 | 1.1 | 0.797 | 0.827 | 0.919 | 0.452 | 0.762
19 | CAL-12T | 0.302 | 0.569 | 0.532 | 0.347 | 0.364 |  |  |  |  |  | 0.385 | 0.393 | 0.513 | 0.492 | 0.396 | 0.415 | 0.385 | 0.348 | 0.347 | 0.331
20 | NCI-H522 |  |  |  |  |  | 0.681 | 0.722 | 0.693 | 0.673 | 0.579 |  |  |  |  |  |  |  |  |  | 

Reference: the supplement of paper PMC10307832
